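Abbreviation: GI50, concentration required for 50% inhibition of growth. The concentration for full growth arrest is given as TGI.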
Key:
Experiment in all cases: growth of human tumour cells (NCI), 384-well format
[1] = test system: 786-0 renal
[2] = test system: A498 renal
[3] = test system: A549 NSCLC
[4] = test system: ACHN renal
[5] = test system: BT-549 breast
[6] = test system: CAKI-1 renal
[7] = test system: CCRF-CEM leukemia
[8] = test system: COLO 205 colon
[9] = test system: DU-145 prostate
[10] = test system: HCC-2998 colon
[11] = test system: HCT-116 colon
[12] = test system: HCT-15 colon
[13] = test system: HL-60(TB) leukemia
[14] = test system: HOP-62 NSCLC
[15] = test system: HOP-92 NSCLC
[16] = test system: HT29 colon
[17] = test system: IGROV1 ovarian
[18] = test system: K-562 leukemia
[19] = test system: KM12 colon
[20] = test system: LOX IMVI melanoma
[21] = test system: M14 melanoma
[22] = test system: MALME-3M melanoma
[23] = test system: MCF7 breast
[24] = test system: MDA-MB-231 breast
[25] = test system: MDA-MB-435 melanoma
[26] = test system: MDA-MB-468 breast
[27] = test system: MOLT-4 leukemia
[28] = test system: NCI-H226 lung
[29] = test system: NCI-H23 lung
[30] = test system: NCI-H322M lung
[31] = test system: NCI-H460 NSCLC
[32] = test system: NCI-H522 lung
[33] = test system: NCI/ADR-RES ovarian
[34] = test system: OVCAR-3 ovarian
[35] = test system: OVCAR-4 ovarian
[36] = test system: OVCAR-5 ovarian
[37] = test system: OVCAR-8 ovarian
[38] = test system: PC-3 prostate
[39] = test system: RPMI-8226 leukemia
[40] = test system: RXF 393 renal
[41] = test system: SF-268 CNS
[42] = test system: SF-295 CNS
[43] = test system: SF-539 CNS
[44] = test system: SK-MEL-2 melanoma
[45] = test system: SK-MEL-28 melanoma
[46] = test system: SK-MEL-5 melanoma
[47] = test system: SK-OV-3 ovarian
[48] = test system: SN12C renal
[49] = test system: SNB-19 CNS
[50] = test system: SR leukemia
[51] = test system: SW-620 colon
[52] = test system: T-47D breast
[53] = test system: TK-10 renal
[54] = test system: U251 glioblastoma
[55] = test system: UACC-257 melanoma
[56] = test system: UACC-62 melanoma
[57] = test system: UO-31 renal

CO[C@@H]1/C=C\C=C(/C)C(=O)NC2=CC(=O)C(NCCN(C)C)=C(C[C@@H](C)C[C@@H](OC)[C@@H](O)[C@H](C)/C=C(\C)[C@H]1OC(N)=O)C2=O
GI50 [1]: 0.0345 µM
TGI [1]: 0.174 µM
GI50 [2]: 0.0508 µM
TGI [2]: 12.7 µM
GI50 [3]: < 0.01 µM
TGI [3]: 0.673 µM
GI50 [4]: 0.128 µM
TGI [4]: 2.54 µM
GI50 [5]: < 0.01 µM
TGI [5]: < 0.01 µM
GI50 [6]: 0.0527 µM
TGI [6]: 12.1 µM
GI50 [7]: 0.0381 µM
TGI [7]: 0.138 µM
GI50 [8]: < 0.01 µM
TGI [8]: < 0.01 µM
GI50 [9]: < 0.01 µM
TGI [9]: 0.0224 µM
GI50 [10]: < 0.01 µM
TGI [10]: 0.0289 µM
GI50 [11]: 0.0269 µM
TGI [11]: 1.34 µM
GI50 [12]: 0.0843 µM
TGI [12]: 1.31 µM
GI50 [13]: 0.021 µM
TGI [13]: 0.0371 µM
GI50 [14]: 0.0168 µM
TGI [14]: 0.0661 µM
GI50 [15]: 0.0364 µM
TGI [15]: 0.137 µM
GI50 [16]: < 0.01 µM
TGI [16]: 1.08 µM
GI50 [17]: 0.0226 µM
TGI [17]: 0.0631 µM
GI50 [18]: 0.0241 µM
TGI [18]: 0.0853 µM
GI50 [19]: 0.0152 µM
TGI [19]: 0.0864 µM
GI50 [20]: 0.0186 µM
TGI [20]: 0.0334 µM
GI50 [21]: < 0.01 µM
TGI [21]: 0.038 µM
GI50 [22]: < 0.01 µM
TGI [22]: < 0.01 µM
GI50 [23]: 0.0132 µM
TGI [23]: 0.147 µM
GI50 [24]: 0.0237 µM
TGI [24]: 0.0681 µM
GI50 [25]: 0.0294 µM
TGI [25]: 1.36 µM
GI50 [26]: 0.0238 µM
TGI [26]: 0.0543 µM
GI50 [27]: 0.0169 µM
TGI [27]: 0.0337 µM
GI50 [28]: 0.0227 µM
TGI [28]: 0.0845 µM
GI50 [29]: 0.0241 µM
TGI [29]: 0.0678 µM
GI50 [30]: < 0.01 µM
TGI [30]: 3.4 µM
GI50 [31]: < 0.01 µM
TGI [31]: < 0.01 µM
GI50 [32]: 0.013 µM
TGI [32]: 0.0305 µM
GI50 [33]: 2.18 µM
TGI [33]: 5.06 µM
GI50 [34]: 0.0233 µM
TGI [34]: 0.0763 µM
GI50 [35]: 0.0174 µM
TGI [35]: 0.359 µM
GI50 [36]: 0.036 µM
TGI [36]: 0.173 µM
GI50 [37]: 0.0216 µM
TGI [37]: 0.0483 µM
GI50 [38]: 0.0199 µM
TGI [38]: 0.0531 µM
GI50 [39]: 0.0161 µM
TGI [39]: 0.0354 µM
GI50 [40]: < 0.01 µM
TGI [40]: 0.0169 µM
GI50 [41]: 0.0248 µM
TGI [41]: 2.32 µM
GI50 [42]: 0.0277 µM
TGI [42]: 0.0969 µM
GI50 [43]: < 0.01 µM
TGI [43]: 0.0246 µM
GI50 [44]: < 0.01 µM
TGI [44]: 0.0275 µM
GI50 [45]: 0.0125 µM
TGI [45]: 9.83 µM
GI50 [46]: < 0.01 µM
TGI [46]: 0.366 µM
GI50 [47]: 0.0125 µM
TGI [47]: 0.0906 µM
GI50 [48]: 0.012 µM
TGI [48]: 0.0416 µM
GI50 [49]: 0.0182 µM
TGI [49]: 2.18 µM
GI50 [50]: 0.0127 µM
TGI [50]: 0.027 µM
GI50 [51]: < 0.01 µM
TGI [51]: 0.0781 µM
GI50 [52]: 0.102 µM
TGI [52]: 0.79 µM
GI50 [53]: 0.0774 µM
TGI [53]: 0.846 µM
GI50 [54]: < 0.01 µM
TGI [54]: 0.0362 µM
GI50 [55]: 0.019 µM
TGI [55]: 0.099 µM
GI50 [56]: < 0.01 µM
TGI [56]: 0.0484 µM
GI50 [57]: 0.368 µM
TGI [57]: 11.7 µM
